Reference: US5478929A, “Bioconversion products of 27-hydroxy avermectin” (Merck & Co., Inc., priority 1994, dated 1995)

Experiments:
Assay type in all cases: in vivo
Haemonchus contortus = test: Anthelmintic activity against Haemonchus contortus; settings: for Activity profile, Haemonchus Contortus: Table 4
[1] = system: Trichostrongylus sigmodontis; test: Anthelmintic activity against Trichostrongylus sigmodontis (large bowel worm); settings: for Activity profile, Trichostrongulus sigmodontis: Table 4; for Anthelmintic activity, Trichostrongylus sigmodontis: Table 2; for Anthelmintic activity, Trichostrongylus sigmodontis: key: A*: highly active; M: moderately active; I: inactive
Description: The anthelmintic activity of the instant compound may be determined by orally administering via the feed, a sample of the individual compound, a mixture of such compound, a concentrated extract, and the like to a mouse which had been infected 3 days earlier with a gastrointestinal parasite. At 11, 12 and 13 days after the initiation of the medication, the feces of the mouse are examined for eggs, and on the next day the mouse is sacrificed and the number of worms present in the proximal portion of the small intestine are determined. An active compound is observed when there is a significant reduction of egg and worm counts when compared to infected, unmedicated controls.

[2] = system: Trichostrongylus colubriformis; test: Anthelmintic activity against Trichostrongylus colubriformis; settings: Table 4
Lucilla larva = test: Insecticidal activity, Lucilla larva; settings: for Insecticidal activity, Lucilla larva 48 hrs: listed as 27-OH ivermectins Isomer B; for all read-outs here: key: A*: highly active; M: moderately active; I: inactive

Row | Compound | Activity profile, Haemonchus Contortus (Haemonchus contortus; 0.0625 mg/kg) | Activity profile, Haemonchus Contortus (Haemonchus contortus; 0.125 mg/kg) | Activity profile, Haemonchus Contortus (Haemonchus contortus; 0.25 mg/kg) | Activity profile, Trichostrongulus sigmodontis ([1]; 0.0625 mg/kg) | Activity profile, Trichostrongulus sigmodontis ([1]; 0.125 mg/kg) | Activity profile, Trichostrongulus sigmodontis ([1]; 0.25 mg/kg) | Activity profile, Trichostrongulus colubriformis ([2]; 0.0625 mg/kg) | Activity profile, Trichostrongulus colubriformis ([2]; 0.125 mg/kg) | Activity profile, Trichostrongulus colubriformis ([2]; 0.25 mg/kg) | Activity profile, Haemonchus Contortus (Haemonchus contortus; 1.00 mg/kg) | Activity profile, Trichostrongulus sigmodontis ([1]; 1.00 mg/kg) | Activity profile, Trichostrongulus colubriformis ([2]; 1.00 mg/kg) | Insecticidal activity, Lucilla larva 24 hrs (Lucilla larva; 0.5 ppm) | Insecticidal activity, Lucilla larva 24 hrs (Lucilla larva; 1 ppm) | Anthelmintic activity, Trichostrongylus sigmodontis ([1]; 0.0625 mg/kg) | Insecticidal activity, Lucilla larva 48 hrs (Lucilla larva; 0.5 ppm) | Insecticidal activity, Lucilla larva 48 hrs (Lucilla larva; 1 ppm) | Anthelmintic activity, Haemonchus contortus (Haemonchus contortus; Table 2, 0.0625 mg/kg, listed as 27-OH ivermectins Isomer B) | Anthelmintic activity, Trichostrongylus sigmodontis ([1]; 0.125 mg/kg, listed as 27-OH ivermectins Isomer B) | Anthelmintic activity, Trichostrongylus sigmodontis ([1]; 0.25 mg/kg, listed as 27-OH ivermectins Isomer B)
1 | 4"-O-glucosyl, 27-OH -22,23 dihydro B1a isomer A [4"-O-glucosyl, 27-OH-22,23 dihydro B1a isomer A] | MA (60-85% effective) | A (85-100% effective) | A (85-100% effective) | A (85-100% effective) | A (85-100% effective) | A (85-100% effective) | SLA (35-60% effective) | A (85-100% effective) | A (85-100% effective) | – | – | – | – | – | – | – | – | – | – | –
2 | 4"-O-glucosyl, 27-OH B1a [4"-O-glucosyl, 27-OH B1a isomer B] | I | A (85-100% effective) | A (85-100% effective) | A (85-100% effective) | A (85-100% effective) | A (85-100% effective) | I | A (85-100% effective) | A (85-100% effective) | – | – | – | – | – | – | – | – | – | – | –
3 | 4"-O-glucosyl, 27-OH-22,23 dihydro B 1 a isomer B [4"-O-glucosyl, 27-OH-22,23 dihydro B1a isomer B] | I | MA (60-85% effective) | A (85-100% effective) | A (85-100% effective) | A (85-100% effective) | A (85-100% effective) | SLA (35-60% effective) | MA (60-85% effective) | A (85-100% effective) | – | – | – | – | – | – | – | – | – | – | –
4 | CC1=C[C@H]2C(=O)O[C@H]3C[C@@H](C/C=C(\C)[C@@H](O)[C@@H](C)/C=C/C=C4\CO[C@H]([C@@H]1O)[C@@]42O)O[C@@]1(CC[C@H](C)[C@@H]([C@@H](C)C(C)O)O1)C3 (single isomer, unassigned) [27-OH-22,23 dihydro B1a aglycone isomer A, 27-hydroxy ivermectin aglycone] | – | – | – | – | – | – | – | – | – | I | I | I | – | – | – | – | – | – | – | –
5 | CC1=C[C@H]2C(=O)O[C@H]3C[C@@H](C/C=C(\C)[C@@H](O)[C@@H](C)/C=C/C=C4\CO[C@H]([C@@H]1O)[C@@]42O)O[C@@]1(CC[C@H](C)[C@@H]([C@@H](C)C(C)O)O1)C3 (single isomer, unassigned) [27-OH-22,23 dihydro B1a aglycone isomer B, 27-hydroxy ivermectin aglycone] | – | – | – | – | – | – | – | – | – | I | I | I | – | – | – | – | – | – | – | –
6 | CO[C@H]1C[C@H](O[C@H]2[C@H](C)O[C@@H](O[C@@H]3/C(C)=C/C[C@@H]4C[C@@H](C[C@]5(CC[C@H](C)[C@@H]([C@@H](C)C(C)O)O5)O4)OC(=O)[C@@H]4C=C(C)[C@@H](O)[C@H]5OC/C(=C\C=C\[C@@H]3C)[C@]54O)C[C@@H]2OC)O[C@@H](C)[C@@H]1O (single isomer, unassigned) [27-OH-22,23 dihydro B1a isomer A, 27-OH 22,23 dihydroavermectin B la] | A (85-100% effective) | A (85-100% effective) | A (85-100% effective) | I | A (85-100% effective) | A (85-100% effective) | A (85-100% effective) | A (85-100% effective) | A (85-100% effective) | – | – | – | I | I | I | – | – | – | – | –
7 | CO[C@H]1C[C@H](O[C@H]2[C@H](C)O[C@@H](O[C@@H]3/C(C)=C/C[C@@H]4C[C@@H](C[C@]5(CC[C@H](C)[C@@H]([C@@H](C)C(C)O)O5)O4)OC(=O)[C@@H]4C=C(C)[C@@H](O)[C@H]5OC/C(=C\C=C\[C@@H]3C)[C@]54O)C[C@@H]2OC)O[C@@H](C)[C@@H]1O (single isomer, unassigned) [27-OH-22,23 dihydro B1a isomer B, 27-OH 22,23 dihydroavermectin B la] | MA (60-85% effective) | A (85-100% effective) | A (85-100% effective) | I | I | I | I | A (85-100% effective) | A (85-100% effective) | – | – | – | I | I | I | I | I | I | I | I
8 | CO[C@H]1C[C@H](O[C@H]2[C@H](C)O[C@@H](O[C@@H]3/C(C)=C/C[C@@H]4C[C@@H](C[C@]5(C=C[C@H](C)[C@@H]([C@@H](C)C(C)O)O5)O4)OC(=O)[C@@H]4C=C(C)[C@@H](O)[C@H]5OC/C(=C\C=C\[C@@H]3C)[C@]54O)C[C@@H]2OC)O[C@@H](C)[C@@H]1O (single isomer, unassigned) [27-OHB1a isomer B, 27-OHB1a] | A (85-100% effective) | A (85-100% effective) | A (85-100% effective) | – | – | SLA (35-60% effective) | A (85-100% effective) | A (85-100% effective) | A (85-100% effective) | – | – | – | – | – | – | – | – | – | – | –
9 | CC[C@H](C)[C@H]1O[C@]2(CC[C@@H]1C)C[C@@H]1C[C@@H](C/C=C(\C)[C@@H](O[C@H]3C[C@H](OC)[C@@H](O[C@H]4C[C@H](OC)[C@@H](O)[C@H](C)O4)[C@H](C)O3)[C@@H](C)/C=C/C=C3\CO[C@@H]4[C@H](O)C(C)=C[C@@H](C(=O)O1)[C@]34O)O2 [22,23 dihydro 8 B1a, 22,23 dihydro B1a, reference compound] | A (85-100% effective) | A (85-100% effective) | A (85-100% effective) | I | A (85-100% effective) | A (85-100% effective) | A (85-100% effective) | A (85-100% effective) | A (85-100% effective) | – | – | – | – | – | – | – | – | – | – | –
10 | CC[C@H](C)[C@H]1O[C@]2(C=C[C@@H]1C)C[C@@H]1C[C@@H](C/C=C(\C)[C@@H](O[C@H]3C[C@H](OC)[C@@H](O[C@H]4C[C@H](OC)[C@@H](O)[C@H](C)O4)[C@H](C)O3)[C@@H](C)/C=C/C=C3\CO[C@@H]4[C@H](O)C(C)=C[C@@H](C(=O)O1)[C@]34O)O2 [B1a, avermectin B1a, reference compound] | A (85-100% effective) | A (85-100% effective) | A (85-100% effective) | SLA (35-60% effective) | A (85-100% effective) | A (85-100% effective) | A (85-100% effective) | A (85-100% effective) | A (85-100% effective) | – | – | – | – | – | – | – | – | – | – | –
